According to patent publication US9884823B2, “Oxime ether acetate compound, preparation method therefor and weeding application thereof” (ZHEJIANG UNIVERSITY OF TECHNOLOGY, priority 2014, dated 2018):
Read-outs that look alike come from different tables or passages of the source.

Tests used:
[1] = test system: Rape; experiment: Culture dish method (general screening); format: in vivo; settings: 100 mg/L, 7 days
Description: (§3) Culture dish method (general screening): The test targets were radish, cucumber, rape, wheat, sorghum and barnyard grass; the seeds of wheat, sorghum and radish were germinated in advance, and the uniform emerge-germinating seeds were used in the test.

[2] = test system: Barnyardgrass; experiment: Culture dish method (general screening); format: in vivo, barnyard grass; settings: 100 mg/L, 7 days
Description: as §3

[3] = test system: Dog point; experiment: Potted plants live body test; format: in vivo; settings: 150 g a.i./ha
Description: (§1) The raw drug which was selected from the compounds in table 1 was weighed using an analytical balance (0.0001 g), and dissolved in DMF containing 1 wt % Tween-80 emulsifier to prepare a mother liquor of raw drug with a mass concentration of 1.0˜5.0%, and then diluted with distilled water, to prepare preparations at desired concentrations according to the ratio of ingredients in Examples 8, 9 and 10.
(§2) The test targets were mustard, small quinoa, Abutilon, amaranthus retroflexus, Eclipta prostrata, crabgrass, dog point. A pot with a diameter of 7.5 cm was used, filled with composite soil (garden soil:nursery matrix, 1:2, v/v) to ¾ of the pot, then the above […] kinds of weeds targets were directly seeded (germination rate ≧85%), covered with soil at a thickness of 0.2 cm. When the weeds grew to 3-leaf stage, pre-emergence soil treatment for weeds planting, and then spraying was performed.

[4] = test system: amaranthus retroflexus; experiment: Potted plants live body test; format: in vivo; settings: 150 g a.i./ha
Description: as §1, §2

[5] = test system: Abutilon; experiment: Potted plants live body test; format: in vivo; settings: 150 g a.i./ha
Description: as §1, §2

[6] = test system: Eclipta prostrata; experiment: Potted plants live body test; format: in vivo; settings: 150 g a.i./ha; for efficiency, Eclipta prostrata: 30 days, Table 9
Description: as §1, §2

[7] = test system: Crabgrass; experiment: Potted plants live body test; format: in vivo; settings: 150 g a.i./ha
Description: as §1, §2

[8] = test system: Radish; experiment: Culture dish method (general screening); format: in vivo; settings: 100 mg/L, 7 days
Description: as §3

[9] = test system: grass weeds such as crabgrass, barnyard grass, dog point; settings: 150 g a.i./ha; for activity for grass targets such as crabgrass and dog point: 30 days after administration, Table 9 summary; for activity on grass weeds such as crabgrass, dog point: postemergence spraying, 30 days
Description: as §1, §2

[10] = test system: Small quinoa; settings: 150 g a.i./ha, 30 days, Table 9
Description: as §1, §2

[11] = test system: broadleaf weeds such as mustard, small quinoa, Abutilon, Amaranthus retroflexus and Eclipta prostrate; settings: 150 g a.i./ha; for herbicidal activity on broadleaf weeds targets: 30 days after administration, Table 9 summary; for activity on the growth of broadleaf weeds: postemergence spraying, 30 days, vs clear water control
Description: as §1, §2

[12] = test system: Chinese sorghum; experiment: Culture dish method (general screening); format: in vivo; settings: 100 mg/L, 7 days
Description: as §3

[13] = test system: Wheat; experiment: Culture dish method (general screening); format: in vivo; settings: 100 mg/L, 7 days
Description: as §3

[14] = test system: Mustard; settings: 150 g a.i./ha, 30 days, Table 9
[15] = test system: Cucumber; experiment: Culture dish method (general screening); format: in vivo; settings: 100 mg/L, 7 days
Description: as §3

[16] = test system: Barnyardgrass; experiment: Potted plants live body test; format: in vivo, barnyard grass; settings: postemergence spraying; 150 g a.i./ha; Table 10
[17] = Postemergence spraying, 30 days, Table 9
[18] = Pre-emergence soil treatment, 30 days, Table 9
[19] = postemergence spraying, Table 10

CON=C(C(=O)OC)c1ccccc1COc1cc(-c2ccccn2)ccc1C(F)(F)F [Compound 112]
inhibition rate, Rape Root [1]: 50%
inhibition rate, Rape Stem [1]: 80%
inhibition rate, Barnyardgrass Root [2]: 0%
inhibition rate, Barnyardgrass Stem [2]: 0%
efficiency, Dog point [3, 17]: 0%
efficiency, Dog point [3, 18]: 0%
efficiency, amaranthus retroflexus [4, 17]: 80%
efficiency, amaranthus retroflexus [4, 18]: 50%
efficiency, Abutilon [5, 17]: 50%
efficiency, Abutilon [5, 18]: 0%
efficiency, Eclipta prostrata ([6]; Postemergence spraying): 60%
efficiency, Eclipta prostrata ([6]; Pre-emergence soil treatment): 0%
efficiency, Crabgrass [7, 17]: 0%
efficiency, Crabgrass [7, 18]: 0%
inhibition rate, Radish Root [8]: 50%
inhibition rate, Radish Stem [8]: 80%
activity for grass targets such as crabgrass and dog point [9]: poor activity
activity on grass weeds such as crabgrass, dog point [9]: almost have no activity
efficiency, Small quinoa ([10]; Postemergence spraying): 75%
efficiency, Small quinoa ([10]; Pre-emergence soil treatment): 45%
herbicidal activity on broadleaf weeds targets [11]: herbicidal activity
activity on the growth of broadleaf weeds [11]: inhibitory activity
inhibition rate, Chinese sorghum Root [12]: 0%
inhibition rate, Chinese sorghum Stem [12]: 0%
inhibition rate, Wheat Root [13]: 0%
inhibition rate, Wheat Stem [13]: 0%
efficiency, Mustard ([14]; Postemergence spraying): 100%
efficiency, Mustard ([14]; Pre-emergence soil treatment): 50%
inhibition rate, Cucumber Root [15]: 50%
inhibition rate, Cucumber Stem [15]: 80%

CON=C(C(=O)OC)c1ccccc1COc1cccc(-c2ncc(Cl)cc2Cl)c1 [Compound 98]
inhibition rate, Rape Root [1]: 50%
inhibition rate, Rape Stem [1]: 80%
inhibition rate, Barnyardgrass Root [2]: 60%
inhibition rate, Barnyardgrass Stem [2]: 20%
efficiency, Dog point [3, 17]: 0%
efficiency, Dog point [3, 18]: 0%
efficiency, amaranthus retroflexus [4, 17]: 80%
efficiency, amaranthus retroflexus [4, 18]: 50%
efficiency, Abutilon [5, 17]: 80%
efficiency, Abutilon [5, 18]: 60%
efficiency, Eclipta prostrata ([6]; Postemergence spraying): 80%
efficiency, Eclipta prostrata ([6]; Pre-emergence soil treatment): 50%
efficiency, Crabgrass [7, 17]: 0%
efficiency, Crabgrass [7, 18]: 0%
inhibition rate, Radish Root [8]: 50%
inhibition rate, Radish Stem [8]: 80%
activity for grass targets such as crabgrass and dog point [9]: poor activity
activity on grass weeds such as crabgrass, dog point [9]: almost have no activity
efficiency, Small quinoa ([10]; Postemergence spraying): 75%
efficiency, Small quinoa ([10]; Pre-emergence soil treatment): 45%
herbicidal activity on broadleaf weeds targets [11]: herbicidal activity
activity on the growth of broadleaf weeds [11]: inhibitory activity
inhibition rate, Chinese sorghum Root [12]: 50%
inhibition rate, Chinese sorghum Stem [12]: 30%
inhibition rate, Wheat Root [13]: 20%
inhibition rate, Wheat Stem [13]: 0%
efficiency, Mustard ([14]; Postemergence spraying): 100%
efficiency, Mustard ([14]; Pre-emergence soil treatment): 50%
inhibition rate, Cucumber Root [15]: 50%
inhibition rate, Cucumber Stem [15]: 80%

CON=C(C(=O)OC)c1ccccc1COc1ccc(-c2ccc(Cl)cn2)cc1 [Compound 27]
inhibition rate, Rape Root [1]: 50%
inhibition rate, Rape Stem [1]: 50%
inhibition rate, Barnyardgrass Root [2]: 60%
inhibition rate, Barnyardgrass Stem [2]: 30%
efficiency, Dog point [3, 17]: 0%
efficiency, Dog point [3, 18]: 0%
efficiency, amaranthus retroflexus [4, 17]: 80%
efficiency, amaranthus retroflexus [4, 18]: 50%
efficiency, Abutilon [5, 17]: 60%
efficiency, Abutilon [5, 18]: 0%
efficiency, Eclipta prostrata ([6]; Postemergence spraying): 80%
efficiency, Eclipta prostrata ([6]; Pre-emergence soil treatment): 0%
efficiency, Crabgrass [7, 17]: 0%
efficiency, Crabgrass [7, 18]: 0%
inhibition rate, Radish Root [8]: 50%
inhibition rate, Radish Stem [8]: 20%
activity for grass targets such as crabgrass and dog point [9]: poor activity
activity on grass weeds such as crabgrass, dog point [9]: almost have no activity
efficiency, Small quinoa ([10]; Postemergence spraying): 60%
efficiency, Small quinoa ([10]; Pre-emergence soil treatment): 25%
herbicidal activity on broadleaf weeds targets [11]: herbicidal activity
activity on the growth of broadleaf weeds [11]: inhibitory activity
inhibition rate, Chinese sorghum Root [12]: 50%
inhibition rate, Chinese sorghum Stem [12]: 0%
inhibition rate, Wheat Root [13]: 50%
inhibition rate, Wheat Stem [13]: 0%
efficiency, Mustard ([14]; Postemergence spraying): 80%
efficiency, Mustard ([14]; Pre-emergence soil treatment): 30%
inhibition rate, Cucumber Root [15]: 60%
inhibition rate, Cucumber Stem [15]: 0%

COc1cc(OC)nc(Oc2ccccc2CNc2ccc(C(=O)OC(C)C)cc2)n1 [Pyribambenz isopropyl, reference compound]
inhibition rate, Rape Root [1]: 100%
inhibition rate, Rape Stem [1]: 100%
inhibition rate, Barnyardgrass Root [2]: 100%
inhibition rate, Barnyardgrass Stem [2]: 95%
efficiency, Dog point [3, 19]: 80%
efficiency, amaranthus retroflexus [4, 19]: 70%
efficiency, Abutilon [5, 19]: 0%
efficiency, Eclipta prostrate [6, 19]: 0%
efficiency, Crabgrass [7, 19]: 50%
inhibition rate, Radish Root [8]: 100%
inhibition rate, Radish Stem [8]: 90%
inhibition rate, Chinese sorghum Root [12]: 100%
inhibition rate, Chinese sorghum Stem [12]: 90%
efficiency, Barnyardgrass [16]: 50%
inhibition rate, Wheat Root [13]: 95%
inhibition rate, Wheat Stem [13]: 95%
inhibition rate, Cucumber Root [15]: 95%
inhibition rate, Cucumber Stem [15]: 90%

CON=C(C(=O)OC)c1ccccc1COc1cccc(-c2ccc(Cl)cn2)c1 [Compound 19]
inhibition rate, Rape Root [1]: 100%
inhibition rate, Rape Stem [1]: 100%
inhibition rate, Barnyardgrass Root [2]: 70%
inhibition rate, Barnyardgrass Stem [2]: 30%
efficiency, Dog point [3, 17]: 0%
efficiency, Dog point [3, 18]: 0%
efficiency, amaranthus retroflexus [4, 17]: 50%
efficiency, amaranthus retroflexus [4, 18]: 30%
efficiency, Abutilon [5, 17]: 40%
efficiency, Abutilon [5, 18]: 0%
efficiency, Eclipta prostrata ([6]; Postemergence spraying): 50%
efficiency, Eclipta prostrata ([6]; Pre-emergence soil treatment): 0%
efficiency, Crabgrass [7, 17]: 0%
efficiency, Crabgrass [7, 18]: 0%
inhibition rate, Radish Root [8]: 80%
inhibition rate, Radish Stem [8]: 80%
activity for grass targets such as crabgrass and dog point [9]: poor activity
activity on grass weeds such as crabgrass, dog point [9]: almost have no activity
efficiency, Small quinoa ([10]; Postemergence spraying): 60%
efficiency, Small quinoa ([10]; Pre-emergence soil treatment): 25%
herbicidal activity on broadleaf weeds targets [11]: herbicidal activity
activity on the growth of broadleaf weeds [11]: inhibitory activity
inhibition rate, Chinese sorghum Root [12]: 80%
inhibition rate, Chinese sorghum Stem [12]: 30%
inhibition rate, Wheat Root [13]: 30%
inhibition rate, Wheat Stem [13]: 0%
efficiency, Mustard ([14]; Postemergence spraying): 50%
efficiency, Mustard ([14]; Pre-emergence soil treatment): 0%
inhibition rate, Cucumber Root [15]: 90%
inhibition rate, Cucumber Stem [15]: 70%

CON=C(C(=O)OC)c1ccccc1COc1ccc(-c2cccc(C)n2)cc1 [Compound 120]
inhibition rate, Rape Root [1]: 60%
inhibition rate, Rape Stem [1]: 0%
inhibition rate, Barnyardgrass Root [2]: 60%
inhibition rate, Barnyardgrass Stem [2]: 20%
efficiency, Dog point [3, 17]: 0%
efficiency, Dog point [3, 18]: 0%
efficiency, amaranthus retroflexus [4, 17]: 20%
efficiency, amaranthus retroflexus [4, 18]: 0%
efficiency, Abutilon [5, 17]: 50%
efficiency, Abutilon [5, 18]: 0%
efficiency, Eclipta prostrata ([6]; Postemergence spraying): 30%
efficiency, Eclipta prostrata ([6]; Pre-emergence soil treatment): 0%
efficiency, Crabgrass [7, 17]: 0%
efficiency, Crabgrass [7, 18]: 0%
inhibition rate, Radish Root [8]: 50%
inhibition rate, Radish Stem [8]: 0%
activity for grass targets such as crabgrass and dog point [9]: poor activity
activity on grass weeds such as crabgrass, dog point [9]: almost have no activity
efficiency, Small quinoa ([10]; Postemergence spraying): 60%
efficiency, Small quinoa ([10]; Pre-emergence soil treatment): 50%
herbicidal activity on broadleaf weeds targets [11]: herbicidal activity
activity on the growth of broadleaf weeds [11]: inhibitory activity
inhibition rate, Chinese sorghum Root [12]: 50%
inhibition rate, Chinese sorghum Stem [12]: 30%
inhibition rate, Wheat Root [13]: 20%
inhibition rate, Wheat Stem [13]: 0%
efficiency, Mustard ([14]; Postemergence spraying): 40%
efficiency, Mustard ([14]; Pre-emergence soil treatment): 20%
inhibition rate, Cucumber Root [15]: 70%
inhibition rate, Cucumber Stem [15]: 30%
